# Data reported in ChEMBL document CHEMBL1156829 (Proc Natl Acad Sci U S A, 2008).
# Assays:
# Plasmodium falciparum [1] = experiment: NOVARTIS: Inhibition of Plasmodium falciparum W2 (drug-resistant) proliferation in erythrocyte-based infection assay; type: functional, organism-based; conditions: Plasmodium falciparum, W2; read-out: EC50
# Plasmodium falciparum [2] = experiment: NOVARTIS: Inhibition of Plasmodium falciparum 3D7 (drug-susceptible) proliferation in erythrocyte-based infection assay; type: functional, organism-based; conditions: Plasmodium falciparum, 3D7
# [3] = NOVARTIS: Cytotoxicity against human hepatocellular carcinoma cell line (Huh7); type: toxicity, cell-based, Huh-7; conditions: Huh7 cells (hepatocellular carcinoma cell line)
SMILES,EC50 (Plasmodium falciparum [1]),EC50 (Plasmodium falciparum [2]),CC50 [3]
O=C1N(c2ccccc2)C[C@@H]2C[C@@H](c3ccc4nonc4c3)N3CCC[C@@]123,2500 nM,2370 nM,> 22100 nM
O=C(c1cc2cc(Br)ccc2o1)N1CCc2c([nH]c3ccccc23)C1c1ccc(Cl)cc1 (stereo unspecified),226 nM,887 nM,> 100000 nM
O=C(NCCc1ccccc1)C(=O)NN=Cc1ccccc1,> 82 nM,> 1250 nM,> 10000 nM
Cc1ccc(-c2nc(CS(=O)(=O)CC(=O)NC3CCC(C)CC3)c(C)o2)cc1 (stereo unspecified),> 244 nM,> 1250 nM,> 10000 nM
CCCC(C(=O)OCC)C(C)=NNc1ccccc1[N+](=O)[O-] (stereo unspecified),1670 nM,1270 nM,> 100000 nM
COc1ccc2c(c1)sc1nc(C)c(C)c(C)[n+]12,> 952 nM,688 nM,> 10000 nM
CCOc1nc2c(c(=O)n(C)c(=O)n2C)n1Cc1cccc(Br)c1,> 885 nM,> 1620 nM,> 10000 nM
Cc1nc(NN=Cc2ccccc2O)cc(N2CCCCC2)n1,237 nM,1080 nM,> 10000 nM
Cc1cccc2cc(CNC3CCOC(C)(C)C3)c(N3CCCC3)nc12 (stereo unspecified),39.7 nM,21.4 nM,39000 nM
Brc1ccc2[nH]c3nc4ccccc4nc3c2c1,> 5920 nM,> 12500 nM,> 100000 nM
CC1(C)Oc2ccc3ccc(=O)oc3c2CC1=NNC(N)=S,4190 nM,> 12500 nM,> 100000 nM
CC(=O)N1CCc2cc(NC3CCN(Cc4ccccc4)CC3)ccc21,> 656 nM,> 1250 nM,> 10000 nM
c1ccc2c(c1)ccc[n+]2CCCCCC[n+]1cccc2ccccc21,780 nM,406 nM,> 10000 nM
CC(C)C(=O)NCCCCNc1ccnc2cc(Cl)ccc12,< 18.5 nM,1600 nM,> 10000 nM
Fc1cccc2sc(Nc3nc(-c4ccccn4)cs3)nc12,95.8 nM,321 nM,24700 nM
C=CC1(O)CN2CCC1CC2[C@@H](O)c1ccnc2ccc(OC)cc12 (stereo partly specified),264 nM,105 nM,> 10000 nM
Cc1sc2nc(C3CC3)n(C3CCN(C(=O)c4ccccn4)CC3)c(=O)c2c1C,2020 nM,> 1250 nM,> 10000 nM
CCCNC(=O)c1ccc(OC2CCN(CC3CCCCC3)CC2)c(Cl)c1,181 nM,287 nM,42400 nM
CCOC(=O)c1sc(NC(=O)C(C)Sc2nnc(CNC(=O)c3cccc(F)c3)n2-c2cccc(C)c2)c(C(=O)OCC)c1C (stereo unspecified),1100 nM,> 12500 nM,> 100000 nM
Cc1nc(N)sc1C(=O)NN=Cc1cccc(Br)c1,819 nM,> 1250 nM,> 10000 nM
COC(CNC(=O)c1c[nH]c2ccc(S(=O)(=O)N3CCN(C)CC3)cc2c1=O)OC,2860 nM,> 12500 nM,> 100000 nM
CC1=NOC(=O)C1=Cc1ccc(-c2ccc([N+](=O)[O-])cc2)o1,6500 nM,> 12500 nM,> 100000 nM
COC(=O)c1sc2nc(CN(C)CC(C)C)ccc2c1NC(=O)c1ccc(C)s1,4010 nM,> 12500 nM,> 100000 nM

SMILES,EC50 (Plasmodium falciparum [1]),EC50 (Plasmodium falciparum [2]),CC50 [3]
CC(Cc1ccccc1Sc1ccccc1O)N(C)C (stereo unspecified),722 nM,2040 nM,34000 nM
CN(C)c1ccc(C=NNc2nc(N)nc(N)n2)cc1,> 1250 nM,2000 nM,> 10000 nM
Cc1ccc(-c2nc3cc(NC(=O)c4ccc([N+](=O)[O-])o4)ccc3o2)cc1Br,6490 nM,6920 nM,74000 nM
CCN(CC)CCCC(C)Nc1cc(/C=C/c2ccccc2Cl)nc2cc(Cl)ccc12 (stereo unspecified) [AMINOQUINOL],283 nM,178 nM,> 10000 nM
Cc1ccn2c(NC(C)(C)CC(C)(C)C)c(-c3ccccc3OS(=O)(=O)CC34CCC(CC3=O)C4(C)C)nc2c1 (stereo unspecified),147 nM,1360 nM,> 10000 nM
Cc1nc(N2CCC(C)CC2)c2c(C)c(C(=O)Nc3ccc(C(F)(F)F)cc3)sc2n1,562 nM,> 12500 nM,> 100000 nM
Cc1cccc(N2C(N)=NC(N)=NC2(C)C)c1,52.8 nM,20.2 nM,2980 nM
CC1=C(C(=O)OC(C)C)C(c2ccccc2F)C2=C(CC(c3ccc(Cl)cc3)CC2=O)N1 (stereo unspecified),35.1 nM,109 nM,> 100000 nM
CCCCCN(C(=O)c1ccc(C)cc1)C(CC)c1nc2ccccc2c(=O)n1-c1ccccc1OC (stereo unspecified),1070 nM,893 nM,> 10000 nM
Cc1onc(-c2ccccc2)c1C(=O)N1CCC(CNc2c(-c3ccc(F)cc3)nc3ccccn23)CC1,178 nM,674 nM,45000 nM
CCCC[C@@H](C)C(O)[C@H]1C(=O)N[C@@H](CC)C(=O)N(C)CC(=O)N(C)[C@@H](CC(C)C)C(=O)N[C@@H](C(C)C)C(=O)N(C)[C@@H](CC(C)C)C(=O)N[C@@H](C)C(=O)N[C@H](C)C(=O)N(C)[C@@H](CC(C)C)C(=O)N(C)[C@@H](CC(C)C)C(=O)N(C)[C@@H](C(C)C)C(=O)N1C (stereo partly specified),251 nM,859 nM,> 10000 nM
OCC(O)COc1cccc2ccccc12 (stereo unspecified),< 29.7 nM,> 1050 nM,> 11200 nM
CCOc1ccc(C(=O)C(C)[n+]2cc(-c3ccc(Cl)cc3)n3c2CCC3)cc1 (stereo unspecified),976 nM,1500 nM,> 78300 nM
Cc1cccc(C2Sc3ccccc3N=C3c4ccccc4C(=O)C32)c1 (stereo unspecified),140 nM,300 nM,24400 nM
S=P(OCC1C(COP(=S)(c2ccccc2)c2ccccc2)C1(Cl)Cl)(c1ccccc1)c1ccccc1 (stereo unspecified),484 nM,385 nM,> 100000 nM
c1ccc(Nc2ccnc(Nc3ccccc3)n2)cc1,1930 nM,804 nM,> 49000 nM
COc1cc(OC)c(N(C)S(=O)(=O)c2cccc(C(=O)OCC(=O)Nc3ccccc3C(C)=O)c2)cc1Cl,7310 nM,8400 nM,> 100000 nM
O=[N+]([O-])c1ccc(S(=O)(=O)NCCCCNc2ccnc3cc(Cl)ccc23)cc1,275 nM,934 nM,9670 nM
CN1CCN=C1c1ccc(NC(=O)c2ccc(C(=O)Nc3ccc(C4=NCCN4C)cc3)cc2)cc1,12 nM,91.1 nM,> 10000 nM
COc1cncc(-c2cncc(N3CCN(CCN(C)C)CC3)n2)c1,695 nM,261 nM,> 10000 nM
Cc1ccc(C2CC(C(F)(F)F)n3ncc(C(=O)Nc4ccc(Cl)cc4)c3N2)cc1 (stereo unspecified),3440 nM,2870 nM,95000 nM
C=CC1CN2CCC1C(C(O)c1ccnc3ccc(OC)cc13)C2 (stereo unspecified),15.1 nM,7.21 nM,> 100000 nM
CCN(CC)CCN1C(=O)c2ccc3c4c(ccc(c24)C1=O)C(=O)N(CCN(CC)CC)C3=O,136 nM,244 nM,221 nM

SMILES,EC50 (Plasmodium falciparum [1]),EC50 (Plasmodium falciparum [2]),CC50 [3]
O=C(Nc1ccc(Oc2cccnc2)cc1)C1CCN(Cc2cc3ccccc3o2)CC1,1510 nM,367 nM,> 100000 nM
O=C(O[Si](c1ccccc1)(c1ccccc1)c1ccccc1)c1ccccc1,1320 nM,> 1250 nM,> 10000 nM
COc1ccc(-c2nc(SCCCCC(=O)N3CCN(C(c4ccccc4)c4ccccc4)CC3)[nH]c2-c2ccc(OC)cc2)cc1,< 13.4 nM,> 1180 nM,> 10000 nM
CCC(C(=O)Nc1sccc1C#N)c1ccccc1 (stereo unspecified),> 612 nM,> 971 nM,> 10000 nM
CC(=O)N(C1=C(N2CCN(C)CC2)C(=O)c2ccccc2C1=O)c1cc(C)cc(C)c1,61.2 nM,67 nM,12600 nM
Cc1ccc2c(nc3sc(=Cc4ccc(-c5ccccc5F)o4)c(=O)n32)c1C,> 1250 nM,921 nM,> 10000 nM
CC(=O)Nc1ccc2c(c1)C(=O)N(C(C(=O)NCC(=O)O)C1CC1)[C@@H](CCC(=O)O)C(=O)N2 (stereo partly specified),280 nM,1260 nM,> 10000 nM
O=C1C(=Nc2cccc(C(F)(F)F)c2)c2ccccc2N1CN1CCc2ccccc2C1,3710 nM,8380 nM,> 100000 nM
O=c1c2cnn(-c3ccccc3)c2nc(-c2ccccc2F)n1-c1ccc(Br)cc1,1230 nM,6790 nM,> 100000 nM
COc1cc(C=NNC(=O)c2cccc3ccccc23)ccc1OCC(N)=O,> 989 nM,> 1250 nM,> 10000 nM
O=c1c(=Cc2ccc(-c3ccc([N+](=O)[O-])cc3Cl)o2)sc2nc3ccccc3n12,> 1250 nM,> 1130 nM,> 10000 nM
O=C(Cn1c2ccccc2c(=O)c2cc(Cl)ccc21)Nc1cccc(C(F)(F)F)c1,1650 nM,> 1360 nM,> 10000 nM
CCCOC(=O)C1=C(C)NC2=C(C(=O)CC(c3ccc(OC)c(OC)c3)C2)C1c1cccc(Br)c1 (stereo unspecified),74.4 nM,322 nM,21600 nM
Cc1ccc(S(=O)(=O)N=C(NS(=O)(=O)c2ccc(C)cc2)c2ccccc2)cc1,> 11200 nM,> 11200 nM,> 100000 nM
O=C(Nc1ccc(Cl)c(C(F)(F)F)c1)NC1CC2CCC(C1)N2C1CCCC1 (stereo unspecified),810 nM,541 nM,> 10000 nM
CCc1ccc(C(=O)N(CCc2ccccc2)C(CC)c2nc3ccccc3c(=O)n2-c2ccccc2OC)cc1 (stereo unspecified),1.5 nM,389 nM,> 9700 nM
COCCCNC(=O)/C=C/c1ccc(C(C)C)cc1,1490 nM,1050 nM,> 13500 nM
Cc1ccc2cc3c(N)c4cccc(C)c4nc3nc2c1,73.6 nM,115 nM,> 10000 nM
CC[n+]1c(/C=C2\C=C(C)CC(C)C2)sc2ccccc21 (stereo unspecified),> 913 nM,> 1140 nM,> 10000 nM
CCOc1ccccc1-n1c(SCC(=O)c2ccc(Cl)cc2)nc2[nH]ncc2c1=O,4020 nM,> 12500 nM,73000 nM
CC1CCCCN1CCCN(Cc1c2ccccc2cc2ccccc12)C(=O)c1ccccc1Cl (stereo unspecified),31.2 nM,878 nM,> 1740 nM
